Results reported in US10494379B2, “6-oxa-3,9,15-triaza-bicyclo[9.3.1]pentadeca-1(14),11(15),12-triene derivatives based compounds and their application as ligands of essential metal ion based MRI and 52MN based PET contrast agents” (DEBRECENI EGYETEM, priority 2015, dated 2019).

How the values were obtained:
[1] = Equilibrium study: protonation constants and total basicity of the ligands; format: physicochemical; details: 25° C., 0.15M NaCl
Protocol: (§1) During the physico-chemical studies of tOPC2A, tOPC2M^Pyp and tOPC2M^Pro compounds prepared according to Example 1, 2, and 5, their protonation constants, as well as equilibrium behaviour and kinetic inertness of their Mn(II) complexes was studied in detail, and the characteristic relaxivity values of the complexes were determined in the presence and absence of HSA (Human Serum Albumin), at 25 and 37° C. and physiological pH. All studies were performed in the presence of 0.15 M NaCl, the same concentration as that of the electrolyte under physiological conditions.
(§2) The results of equilibrium study are summarized in Table 1, in addition to the protonation constants, total basicity of ligands and stability constants of their Mn(II) complexes, the pMn value calculated for complexes are also represented in the table.

[2] = Equilibrium study: stability constants of Mn(II) complexes and calculated pMn; format: physicochemical; details: 25° C., 0.15M NaCl; for pMn: calculated from equilibrium constants at pH = 7.4 and cMn = cL = 10^−5 M
Protocol: as §1, §2
Based on the pMn values presented in Table 1 (calculated using the equilibrium constants at pH=7.4 and cMn=cL=10^−5 M), it can be concluded that the studied Mn(II) complexes are formed in 100% at physiological pH, which is an essential aspect of the practical use.

[3] = literature values, 'under the same conditions'; cited from earlier work
[4] = cited from earlier work

Row | logK1 (protonation constant) [1] | logK2 (protonation constant) [1] | ΣlogKi^H (total basicity) [1] | logKMnL (stability constant of Mn(II) complex) [2] | pMn [2] | logK3 (protonation constant) [1] | logK4 (protonation constant) [1] | Structure (SMILES) | r1 (relaxivity) [3] | Gd(III) release at 37° C. relative to value calculated from experiments at 25° C. ([4]; 37° C. vs 25° C.) | Gd(III) ion released during in vivo dissociation ([4]; 37° C.)
1 | 7.37(3) | 5.14(4) | 18.17 | 10.03(1) | 7.37 | 3.26(4) | 2.40(4) | O=C(O)C1CCCN1C(=O)CN1CCOCCN(CC(=O)N2CCCC2C(=O)O)Cc2cccc(n2)C1 (stereo not shown) [tOPC2AM^Pro] | – | – | –
2 | 7.73(2) | 7.66(1) | 17.52 | 13.03(1) | 8.59 | 2.13(1) | – | O=C(O)CN1CCOCCN(CC(=O)O)Cc2cccc(n2)C1 [tOPC2A, 4-oxo-1,7-diaza-2,6-pyridinophane-diacetate] | – | – | –

The remaining lines, values behind:

Row | Structure (SMILES) | logK1 (protonation constant) [1] | logK2 (protonation constant) [1] | ΣlogKi^H (total basicity) [1] | logKMnL (stability constant of Mn(II) complex) [2] | pMn [2] | logK3 (protonation constant) [1] | logK4 (protonation constant) [1] | r1 (relaxivity) [3] | Gd(III) release at 37° C. relative to value calculated from experiments at 25° C. ([4]; 37° C. vs 25° C.) | Gd(III) ion released during in vivo dissociation ([4]; 37° C.)
3 | O=C(CN1CCOCCN(CC(=O)N2CCCCC2)Cc2cccc(n2)C1)N1CCCCC1 [tOPC2AM^Pyp, 3,9-bis[2-oxo-2-(piperidin-1-yl)-ethyl]-6-oxa-3,9,15-triaza-bicyclo[9.3.1]pentadeca-1(14),11(15),12-triene] | 7.91(2) | 5.51(3) | 13.42 | 10.84(4) | 7.60 | – | – | – | – | –
4 | CNC[C@H](O)[C@@H](O)[C@H](O)[C@H](O)CO.O=C([O-])CN1CCN(CC(=O)[O-])CCN(CC(=O)O)CCN(CC(=O)[O-])CC1.[Gd+3] [DOTAREM] | – | – | – | – | – | – | – | 3.83 mM⁻¹ s⁻¹ | – | –
5 | CNC[C@H](O)[C@@H](O)[C@H](O)[C@H](O)CO.CNC[C@H](O)[C@@H](O)[C@H](O)[C@H](O)CO.O=C([O-])CN(CCN(CC(=O)[O-])CC(=O)O)CCN(CC(=O)[O-])CC(=O)O.[Gd+3] [MAGNEVIST] | – | – | – | – | – | – | – | 4.02 mM⁻¹ s⁻¹ | 4.4 fold | 2.2%
